Active and inactive are the calls of the source.
How the values were obtained:
Cytochrome P450 1A2 = biological target: T1, Cytochrome P450 1A2 (Homo sapiens, UniProt P05177);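 note: PubChem cytochrome P450 panel assay, CYP1A2 panel member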
T1 sequence (P05177 whole entry): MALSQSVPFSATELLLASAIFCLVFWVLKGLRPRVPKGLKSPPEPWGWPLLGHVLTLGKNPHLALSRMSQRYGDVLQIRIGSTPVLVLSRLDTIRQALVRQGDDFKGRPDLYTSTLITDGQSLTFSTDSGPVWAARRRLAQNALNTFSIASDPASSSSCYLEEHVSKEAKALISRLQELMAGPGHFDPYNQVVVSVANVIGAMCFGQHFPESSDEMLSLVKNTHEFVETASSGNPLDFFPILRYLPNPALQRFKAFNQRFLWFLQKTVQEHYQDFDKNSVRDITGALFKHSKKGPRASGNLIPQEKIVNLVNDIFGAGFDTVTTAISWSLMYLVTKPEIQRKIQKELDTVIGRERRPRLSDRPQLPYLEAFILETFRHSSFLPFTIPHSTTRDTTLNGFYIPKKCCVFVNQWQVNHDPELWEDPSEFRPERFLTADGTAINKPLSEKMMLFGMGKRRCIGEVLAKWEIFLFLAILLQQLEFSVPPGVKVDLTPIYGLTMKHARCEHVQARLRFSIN

H9c2 = assay: cells; type: functional, cell-based; settings: Rattus norvegicus, H9c2, Myocardium;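 note: confirmatory concentration-response retest of ultra-high-throughput screening hits for modulation of myocardial damage; cell death induced by hydrogen peroxide oxidative stress; compound pretreatment for 60 min then peroxide exposure for 2 h; potency is for protecting the cells against peroxide damage rather than for killing them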
[1] = biological target: T2, Corticotropin-releasing factor receptor 2/Corticotropin-releasing factor-binding protein (Homo sapiens, UniProt P24387+Q13324); assay: Dose Response confirmation of uHTS hits for small molecule antagonists of the CRF-binding protein and CRF-R2 receptor complex.; type: functional; settings: read-out: IC50_Mean
T2 sequence (Q13324 whole entry): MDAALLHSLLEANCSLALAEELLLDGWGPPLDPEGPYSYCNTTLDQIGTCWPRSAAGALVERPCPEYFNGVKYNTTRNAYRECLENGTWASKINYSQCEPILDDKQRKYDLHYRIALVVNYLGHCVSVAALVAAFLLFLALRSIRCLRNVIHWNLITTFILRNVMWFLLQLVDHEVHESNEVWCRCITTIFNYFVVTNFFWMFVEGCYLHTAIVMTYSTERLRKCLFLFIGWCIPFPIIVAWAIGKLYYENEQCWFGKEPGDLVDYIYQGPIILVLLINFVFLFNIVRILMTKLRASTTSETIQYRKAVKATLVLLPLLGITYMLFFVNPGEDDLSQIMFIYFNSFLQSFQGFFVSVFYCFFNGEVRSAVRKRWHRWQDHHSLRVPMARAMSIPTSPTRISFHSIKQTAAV
T2 sequence (P24387 whole entry): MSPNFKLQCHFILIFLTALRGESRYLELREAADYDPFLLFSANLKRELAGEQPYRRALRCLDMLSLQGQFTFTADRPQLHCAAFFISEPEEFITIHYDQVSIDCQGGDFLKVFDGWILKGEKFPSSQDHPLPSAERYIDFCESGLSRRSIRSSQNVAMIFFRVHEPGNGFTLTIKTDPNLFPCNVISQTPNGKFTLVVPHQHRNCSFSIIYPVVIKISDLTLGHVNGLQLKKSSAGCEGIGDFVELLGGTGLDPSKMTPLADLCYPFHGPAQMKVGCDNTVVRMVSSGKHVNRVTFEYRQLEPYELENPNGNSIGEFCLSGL

[2] = biological target: T2, Corticotropin-releasing factor receptor 2/Corticotropin-releasing factor-binding protein; assay: activators of CRF receptor 2 with binding protein – uHTS hits, confirmation (AID 602473); type: functional; settings: read-out: EC50_Mean
[3] = HEp-2 cell cytotoxicity, dose response, cytotoxicity control for RSV inhibitor project, HTS (AID 2410); type: functional; settings: human respiratory syncytial virus
[4] = test system: Streptococcus sp. 'group A'; assay: growth inhibition of control SK(-) GAS strain, dose response, counter-screen for streptokinase expression inhibitor project, luminescence, kanamycin, BacTiterGlo, confirmation (AID 1900); type: functional, organism-based
Streptokinase A = biological target: T3, Streptokinase A (Streptococcus pyogenes serotype M1, UniProt P10520); assay: S. pyogenes streptokinase expression inhibitors, potency, dose response, plasminogen activation absorbance, OD405 (AID 1914); type: functional, Streptococcus pyogenes M1 GAS;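 note: secreted streptokinase activity via plasminogen activation per viability signal from cell pellet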
T3 sequence (P10520 whole entry): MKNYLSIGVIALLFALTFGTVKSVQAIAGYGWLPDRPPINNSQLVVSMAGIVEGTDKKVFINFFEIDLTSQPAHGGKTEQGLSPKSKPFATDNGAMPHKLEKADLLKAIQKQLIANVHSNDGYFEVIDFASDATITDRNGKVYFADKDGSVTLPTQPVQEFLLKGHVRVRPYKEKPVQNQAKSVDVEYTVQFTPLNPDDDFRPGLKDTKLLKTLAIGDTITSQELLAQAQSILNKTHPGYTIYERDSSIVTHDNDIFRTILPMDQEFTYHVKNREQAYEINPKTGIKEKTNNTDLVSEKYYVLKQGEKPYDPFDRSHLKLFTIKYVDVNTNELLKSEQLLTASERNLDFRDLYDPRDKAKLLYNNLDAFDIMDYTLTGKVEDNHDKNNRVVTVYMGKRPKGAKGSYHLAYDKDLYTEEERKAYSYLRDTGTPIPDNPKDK

Streptococcus = assay: Group A Streptococcus viability loss, dose response, counter-screen for streptokinase expression inhibitor project, luminescence, BacTiterGlo (AID 1915); type: functional, organism-based;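 note: potency for reduction of bacterial viability or growth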
Cytochrome P450 2D6 = Cytochrome P450 2D6 (Homo sapiens, UniProt P10635);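 note: CYP2D6 member of a cytochrome P450 panel assay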
[5] = Luminescence Cell-Based Dose Retest to Confirm Inhibitors of Cancer Stem Cells. [Related pubchem assays (depositor defined):AID2717, AID2721]; type: functional; settings: Homo sapiens
Cytochrome P450 2C19 = Cytochrome P450 2C19 (Homo sapiens, UniProt P33261); assay: Cytochrome panel assay with activity outcomes. Panel member name: p450-cyp2c19 Compounds with AC50 equal or less than 10 uM are considered active; type: functional
Paired box protein Pax-8 = Paired box protein Pax-8 (Homo sapiens, UniProt Q06710); assay: inhibitors of PAX8-driven TPO luciferase reporter, dose response, RMG-I cells, cherry-pick (AID 687027); type: functional, cell-based;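 note: luciferase reporter driven by Pax8 target thyroperoxidase promoter measured by SteadyGlo luminescence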
[6] = Luminescence Cell-Based Dose Response HTS to Identify Activators of Luciferase Translation or Activity in H4 […] Cells. [Related pubchem assays: 1829 (Project Summary), 1814 (Primary HTS)]; type: functional
H4 = assay: Luminescence Cell-Based Dose Response HTS to Identify Activators of 5'UTR Stem-Loop Driven Prion Protein mRNA Translation in H4 Neuroglioblastoma Cells. [Related pubchem assays: 1829 (Project Summary), 1814 (Primary HTS)]; type: functional; settings: Homo sapiens
[7] = inhibitors of intracellular T. cruzi replication, confirmation, NIH3T3 host cells, beta-gal luminescence (AID 2044); type: functional, cell-based;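 note: intracellular parasites grown in NIH/3T3 mouse fibroblasts as host cells; luminescent beta-galactosidase reporter signal from transgenic T. cruzi replicating inside host cells; inhibitors lower the luminescence signal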
[8] = cytotoxicity toward NIH3T3 fibroblasts, dose response, counter-screen, cell-based, ATP luminescence, mouse fibroblasts (AID 2010); type: functional;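 note: cells exposed to compound for about 90 hours before reading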

Chain of Cytochrome P450 2D6 (P10635 whole entry): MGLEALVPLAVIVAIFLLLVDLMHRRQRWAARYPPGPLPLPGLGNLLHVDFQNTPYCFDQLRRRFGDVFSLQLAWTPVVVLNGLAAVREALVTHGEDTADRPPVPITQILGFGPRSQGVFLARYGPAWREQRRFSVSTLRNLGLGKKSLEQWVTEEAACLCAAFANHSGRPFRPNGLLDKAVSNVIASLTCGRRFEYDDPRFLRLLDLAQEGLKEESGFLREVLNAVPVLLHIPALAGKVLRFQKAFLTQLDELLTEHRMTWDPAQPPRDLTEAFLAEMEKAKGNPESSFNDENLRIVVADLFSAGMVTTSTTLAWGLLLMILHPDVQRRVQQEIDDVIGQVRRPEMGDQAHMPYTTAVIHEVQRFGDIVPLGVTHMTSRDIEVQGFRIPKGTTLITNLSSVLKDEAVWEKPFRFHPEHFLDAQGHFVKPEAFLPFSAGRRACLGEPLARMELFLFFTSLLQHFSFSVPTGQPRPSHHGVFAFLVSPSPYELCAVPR
Chain of Cytochrome P450 2C19 (P33261 whole entry): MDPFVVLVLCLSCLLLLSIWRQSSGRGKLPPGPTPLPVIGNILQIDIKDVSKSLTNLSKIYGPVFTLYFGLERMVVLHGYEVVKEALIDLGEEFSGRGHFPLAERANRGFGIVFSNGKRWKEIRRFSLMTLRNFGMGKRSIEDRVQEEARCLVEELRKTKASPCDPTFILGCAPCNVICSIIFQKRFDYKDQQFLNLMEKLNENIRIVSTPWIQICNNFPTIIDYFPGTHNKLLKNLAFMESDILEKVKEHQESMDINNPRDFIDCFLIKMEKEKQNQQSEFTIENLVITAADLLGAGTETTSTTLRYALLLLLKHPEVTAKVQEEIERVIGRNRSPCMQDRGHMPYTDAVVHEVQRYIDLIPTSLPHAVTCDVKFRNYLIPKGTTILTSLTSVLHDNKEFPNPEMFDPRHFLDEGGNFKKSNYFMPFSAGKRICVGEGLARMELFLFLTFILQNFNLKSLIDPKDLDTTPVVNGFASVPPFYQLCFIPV
Chain of Paired box protein Pax-8 (Q06710 whole entry): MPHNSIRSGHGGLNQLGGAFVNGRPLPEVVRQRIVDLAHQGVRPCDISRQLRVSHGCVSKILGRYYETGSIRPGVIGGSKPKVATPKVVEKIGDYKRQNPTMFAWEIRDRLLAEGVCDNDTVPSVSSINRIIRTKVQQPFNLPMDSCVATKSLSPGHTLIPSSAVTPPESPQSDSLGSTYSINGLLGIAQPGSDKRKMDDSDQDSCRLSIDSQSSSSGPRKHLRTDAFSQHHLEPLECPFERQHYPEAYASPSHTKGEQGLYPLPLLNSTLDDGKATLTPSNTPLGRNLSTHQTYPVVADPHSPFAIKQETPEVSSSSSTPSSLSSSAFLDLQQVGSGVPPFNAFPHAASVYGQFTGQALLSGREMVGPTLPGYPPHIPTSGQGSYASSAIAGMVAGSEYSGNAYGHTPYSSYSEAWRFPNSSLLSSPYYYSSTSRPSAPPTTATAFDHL

Compound: COc1ccc(C(=O)N2CCC[C@@]3(CCN(Cc4ccccc4)C3)C2)cc1
- AC50 (Cytochrome P450 1A2): 12.6 µM (inconclusive)

Compound: COC(=O)c1cc(NC(=O)c2cc3ccccc3o2)cc(C(=O)OC)c1
- IC50 (H9c2): > 79 µM (inactive)

Compound: O=C(CSc1nc2ccccc2n1CCc1ccccc1)NC1CCS(=O)(=O)C1 (centres undefined)
- IC50 [1]: > 47.1 µM (inactive)
- EC50 [2]: > 53 µM (inactive)

Compound: c1ccc2sc(SCSc3nc4ccccc4s3)nc2c1
- CC50 [3]: 29.5 µM (active)
- EC50 [4]: > 150 µM (not active)
- EC50 (Streptokinase A): > 150 µM (not active)
- EC50 (Streptococcus): > 150 µM (not active)
- AC50 (Cytochrome P450 2D6): 2.51 µM (inconclusive)

Compound: N=C(N/N=C\c1ccc(Br)cc1)N/N=C\c1ccc(Br)cc1
- EC50 [4]: 2.39 µM (active)
- EC50 (Streptococcus): 5.33 µM (active)
- AC50 [5]: 3.04 µM (active)

Compound: CCN(CC)C(=O)c1ccc(-c2nnc(Nc3ccc(O)cc3)c3ccccc23)cc1
- IC50 (H9c2): 14.2 µM (active)

Compound: CCN(CCCNC(=O)C1CCN(S(=O)(=O)CC)CC1)c1cccc(C)c1
- AC50 (Cytochrome P450 2C19; read-out: AC50): 39.8 µM (inconclusive)
- AC50 (Cytochrome P450 1A2): 31.6 µM (inconclusive)

Compound: CC(C)(C)OC(=O)NCCCCCNC(=O)c1[nH]cnc1C(=O)Nc1cc(Br)ccc1F
- IC50 (H9c2): > 79 µM (inactive)

Compound: Oc1nc2cc(F)ccc2c2ccc(F)cc12
- IC50 (H9c2): > 79 µM (inactive)

Compound: CCCN1CCc2c(sc(NC(=O)c3ccc(S(=O)(=O)N(C)c4ccccc4)cc3)c2C(N)=O)C1
- EC50 [2]: 4.43 µM (active)

Compound: COC(=O)[C@@H]1[C@@H]2C[C@H]3c4[nH]c5cc(OC)ccc5c4CCN3C[C@@H]2C[C@H](OC(=O)c2cc(OC)c(OC)c(OC)c2)[C@H]1OC
- AC50 (Cytochrome P450 1A2): 15.8 µM (inconclusive)

Compound: O=C(O)[C@@H]1CCCN1Cc1cc2ccccc2c2ccccc12
- AC50 (Cytochrome P450 1A2): 6.31 µM (inconclusive)

Compound: Cc1ccc(S(=O)(=O)N(C)C[C@H]2Oc3c(NC(=O)Nc4ccc(F)cc4)cccc3C(=O)N([C@@H](C)CO)C[C@H]2C)cc1
- AC50 (Paired box protein Pax-8): 11.5 µM (active)

Compound: CC1Cc2cc(S(=O)(=O)N3CCCCC3C)ccc2N1C(=O)C1CCC1 (centres undefined)
- CC50 [3]: 20.8 µM (active)

Compound: COc1ccc(/C=C(\C#N)C(=O)c2c(C)[nH]c3ccccc23)cc1OC
- IC50 (H9c2): > 79 µM (inactive)

Compound: COc1ccc(C(=O)COC(=O)Cc2nnc(O)c3ccccc23)c(OC)c1
- IC50 (H9c2): > 79 µM (inactive)

Compound: O=c1c(Cl)c(NCc2ccc(F)cc2)cnn1C12CC3CC(CC(C3)C1)C2
- AC50 [5]: 0.913 µM (active)

Compound: Brc1ccc(-c2noc(CCc3ccccc3)n2)cc1
- CC50 [3]: 47.7 µM (active)

Compound: CC#CC(=O)N1CCC(C(=O)Nc2ccc(Oc3ccccc3)nc2)CC1
- EC50 [6]: 25.4 µM (active)
- EC50 (H4): 73 µM (active)

Compound: CC(=O)c1ccc(-c2cnc3c(NC=O)cc(-c4cccc(C(=O)N(C)C)c4)cn23)cc1
- IC50 (H9c2): 11.2 µM (active)

Compound: CCOC(=O)c1c(-c2cccs2)csc1NC(=O)C(C)(C)C
- CC50 [3]: 49.8 µM (active)

Compound: COCCn1c(=O)c(-c2ccc(Cl)cc2)nc2cnc(N3CCOCC3)nc21
- AC50 (Cytochrome P450 1A2): 1 µM (inconclusive)

Compound: Oc1ccc(C[C@H]2CN=C(S)N2CCc2cc(C(F)(F)F)cc(C(F)(F)F)c2)cc1
- CC50 [3]: 28.9 µM (active)

Compound: O=C(N/N=C\c1ccccn1)C1COc2cc3ccccc3cc2O1 (centres undefined)
- IC50 (H9c2): > 79 µM (inactive)

Compound: CC(C)(C)C1COc2ccccc2N1C(=O)c1ccccc1Cl (centres undefined)
- EC50 [2]: 11.3 µM (active)

Compound: COc1ccc(-c2oc3c4c(cc(OC)c3c(=O)c2CC=C(C)C)OC(C)(C)C=C4)c(OC)c1
- EC50 [7]: 2.08 µM (active)
- EC50 [8]: > 60 µM (not active)
- AC50 [5]: 6.2 µM (active)

Compound: c1cc2cc(-c3c(-c4ccc5c(c4)OCO5)noc3-c3ccsc3)ccc2[nH]1
- CC50 [3]: 44.8 µM (active)
- AC50 [5]: 1.69 µM (active)

Compound: Cc1nn(-c2ccccc2)c(C)c1/C=N/NC(=O)c1cc(C(C)(C)C)[nH]n1
- IC50 (H9c2): 12.2 µM (active)

Compound: Nc1ncnc(Nc2cccc(Cl)c2Cl)n1
- CC50 [3]: 26.1 µM (active)

Compound: CCCCNc1c(-c2ccc(OC)c(SC3CCCCC3)c2)nc2cc(C)ccn12
- EC50 [4]: 3.09 µM (active)
- EC50 (Streptokinase A): 9.9 µM (active)
- EC50 (Streptococcus): 10.1 µM (active)
- AC50 [5]: 4.36 µM (active)

Compound: COc1ccc(CN(C(=O)c2nsc(Cl)c2Cl)C(C(=O)NC2CCCC2)c2ccc(OC)cc2)cc1 (centres undefined)
- EC50 [2]: > 53 µM (inactive)

Compound: Cc1cnc(CNc2cc(-c3ccoc3)ncn2)cn1
- AC50 (Cytochrome P450 1A2): 25.1 µM (inconclusive)

Compound: C/C(=N\NC(N)=O)c1ccccc1Cl
- CC50 [3]: 19.4 µM (active)

Compound: Cc1c(-c2cccc(Cl)c2)nc2ccccc2c1C(=O)OCC(=O)Nc1ccc2c(c1)OCO2
- CC50 [3]: 16.3 µM (active)
- EC50 [7]: 2.22 µM (active)
- EC50 [8]: > 60 µM (not active)

Compound: Cn1cccc1C(=O)N1CCC2(CCCN(c3ccccc3)C2)CC1
- AC50 (Cytochrome P450 1A2): 10 µM (inconclusive)

Compound: CC(=O)Nc1ccc(-c2csc(NC(=O)CCCc3cccs3)n2)cc1
- AC50 [5]: 7.57 µM (active)

Compound: CN(C(=O)CCCOc1ccc2[nH]c(=O)ccc2c1)C1CCCCC1 [CILOSTAMIDE]
- AC50 (Cytochrome P450 2C19): inconclusive
- AC50 (Cytochrome P450 1A2): 31.6 µM (inconclusive)

Compound: N#C/C(=C\c1ccc(OCC(N)=O)cc1)c1ccccc1
- CC50 [3]: 36.8 µM (active)

Compound: O=C(c1cc(-c2cccnc2)nc2ccc(Br)cc12)N1CCN(c2ncccn2)CC1
- IC50 (H9c2): > 79 µM (inactive)

Compound: Cc1ccc(-n2nnnc2C(=Cc2ccc(N(C)C)cc2)c2nnnn2-c2ccc(C)cc2)cc1
- AC50 (Cytochrome P450 2D6): 15.8 µM (inconclusive)
- AC50 (Cytochrome P450 1A2): 12.6 µM (inconclusive)
